Measured values taken from PMC11784145, “Efficacy and in vitro pharmacological assessment of novel N-hydroxypyridinediones as hepatitis B virus ribonuclease H inhibitors” (Antimicrobial Agents and Chemotherapy, 2024).

How the values were obtained:
[1] = system: HBV replication (HBV plus-polarity DNA strand); assay: HBV replication inhibition, strand preferential qPCR in hepDES19 cells; format: cell-based, hepatitis B virus; conditions: for EC50: 72 h exposure, HBV plus-polarity strand suppression, highest concentration tested 100 µM, mean ± SD, read-out: HepDES19 EC50
Method: HBV replication inhibition was measured in hepDES19 cells following 72 h compound exposure without compound replenishment. EC50 values were determined by HBV plus-polarity strand suppression using a strand preferential qPCR assay, as described previously ([28]). Three or more replicate values were obtained on different days.

[2] = Solubility limit, turbidimetric assay; format: physicochemical; conditions: for Average Sol (solubility limit) / Sol 1 (solubility limit) / Sol 2 (solubility limit) / Sol 3 (solubility limit) / Sol 4 (solubility limit): upper limit 200 µM
Method: Solubility limits were determined by a turbidimetric assay, as described ([27]), with the solubility limit being defined as the compound concentration where light scattering began to rise. Two or more replicate assays were performed for each compound at each pH on different days.

[3] = Parallel artificial membrane permeability assay (PAMPA); format: in vitro ADME
Method: Compound Papp values were determined by normalizing the experimental compound absorbance to the compounds’ absorbances at equilibrium, membrane porosity, buffer volume, and time (s). Two or more replicate assays were obtained on separate days for each pH.

[4] = Microsome stability; format: in vitro ADME, human
Method: Human liver microsomes (gender pooled, 50 individuals) were purchased from BioIVT and stored at −80°C until use. […] Reactions were initiated by addition of 1.2 mM NADPH. […] Microsomal proteins were pelleted at 4,000 × g and the supernatant was analyzed via LCMS/MS. […] The ln percent remaining values were plotted against time, the negative slope was taken (k), and compound half-life (t1/2) was determined using ln2/k. Intrinsic clearance (Clint [µL/min/mg]) was calculated by (V × ln2)/t1/2, where V is the incubation volume (µL) divided by the protein concentration in the reaction (mg) ([31]).

[5] = system: HepDES19 cells; conditions: read-out: HepDES19 CC50; 72 h, MTS; highest concentration tested 100 µM; mean ± SD
[6] = target: T1, human ribonuclease H1 (huRNase H1) (Homo sapiens, UniProt O60930); assay: Human RNase H1 inhibition, fluorescent biochemical assay; conditions: recombinant huRNase H1, RNA:DNA heteroduplex substrate
T1 construct: made in house; host or cells: Escherichia coli
T1 sequence (O60930 1-286): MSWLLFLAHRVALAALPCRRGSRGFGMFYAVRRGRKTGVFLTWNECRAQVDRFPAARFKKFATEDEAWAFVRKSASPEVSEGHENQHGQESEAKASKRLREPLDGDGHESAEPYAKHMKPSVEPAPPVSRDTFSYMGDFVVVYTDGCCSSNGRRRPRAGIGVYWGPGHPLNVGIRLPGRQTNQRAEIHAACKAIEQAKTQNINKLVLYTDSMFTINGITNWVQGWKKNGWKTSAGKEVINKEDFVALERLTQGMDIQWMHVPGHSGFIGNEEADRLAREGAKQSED
Method: Recombinant human ribonuclease H1 (huRNase H1) was expressed in Escherichia coli and purified by nickel affinity chromatography, as described previously ([30]). […] The heteroduplex substrate was prepared, as described by Ponzar et al. ([30]). Reactions were initiated by the addition of MgCl2 (5 mM final) and were performed on a Biotek Synergy HTX multi-mode plate reader at 28°C.
Maximum rates of fluorescence increase were calculated using the Biotek Gen5 v3.15 software and percentage activity was determined for each compound concentration by subtracting rates from no enzyme reactions and normalizing to DMSO reactions. […] Reactions were performed at least three times on separate days.

[7] = pH 5 (fed simulated intestinal fluid)
[8] = pH 6.5 (fasted simulated intestinal fluid)

Structure (SMILES) | HepDES19 SI (CC50/EC50) [1] | EC50 [1] [µM] | Average Sol (solubility limit) [2, 7] [µM] | Sol 1 (solubility limit) ([2]; pH 5, replicate 1) [µM] | Sol 2 (solubility limit) ([2]; pH 5, replicate 2) [µM] | Average Sol (solubility limit) [2, 8] [µM] | Sol 1 (solubility limit) ([2]; pH 6.5, replicate 1) [µM] | Sol 2 (solubility limit) ([2]; pH 6.5, replicate 2) [µM] | Average Sol (solubility limit) ([2]; pH 7.4 (DMEM-F12 with 10% FBS)) [µM] | Sol 1 (solubility limit) ([2]; pH 7.4, replicate 1) [µM] | Sol 2 (solubility limit) ([2]; pH 7.4, replicate 2) [µM] | Avg Papp (PAMPA) ([3]; FeSSIF pH 5) [×10⁻⁶ cm/s] | Interpretation (PAMPA Papp) ([3]; FeSSIF pH 5) | Papp 1 (PAMPA) ([3]; FeSSIF pH 5, replicate 1) [×10⁻⁶ cm/s] | Papp 2 (PAMPA) ([3]; FeSSIF pH 5, replicate 2) [×10⁻⁶ cm/s] | Avg Papp (PAMPA) ([3]; pH 7.4) [×10⁻⁶ cm/s] | Interpretation (PAMPA Papp) ([3]; pH 7.4) | Papp 1 (PAMPA) ([3]; pH 7.4, replicate 1) [×10⁻⁶ cm/s] | Papp 2 (PAMPA) ([3]; pH 7.4, replicate 2) [×10⁻⁶ cm/s] | CC50 [5] [µM] | also measured
CC(=NOCc1ccc(C(F)(F)F)cc1)c1c(C)cc(=O)n(O)c1O [Compound 1235] | 26.3 | 1.87 ± 0.351 | > 200 | > 200 | > 200 | 167 | 100 | > 200 | > 200 | > 200 | > 200 | 18 | H (H: Papp > 1*10-6) | 22.7 | 13.2 | 3.34 | H (H: Papp > 1*10-6) | 2.29 | 4.4 | 49.2 ± 19.2 | Sol 3 (solubility limit) ([2]; pH 6.5, replicate 3): > 200 µM; Clearance (intrinsic clearance, Clint) ([4]; human, microsomes): 5.48 µL/min/mg; Half-life ([4]; human, microsomes): >30 min
COc1ccc(CON=C(C)c2c(C)cc(=O)n(O)c2O)cc1OC [Compound 1669] | 80.6 | 1.13 ± 0.955 | > 200 | > 200 | > 200 | > 200 | > 200 | > 200 | > 200 | > 200 | > 200 | 56.7 | H (H: Papp > 1*10-6) | 57.9 | 55.5 | 2.12 | H (H: Papp > 1*10-6) | 2.03 | 2.2 | 91 ± 15.6 | 
CC(=NOCc1ccccc1C)c1c(C)cc(=O)n(O)c1O [Compound 1681] | 25.2 | 3.97 ± 1.19 | > 200 | > 200 | > 200 | > 200 | > 200 | > 200 | 106 | 25 | 100 | 30 | H (H: Papp > 1*10-6) | 28.5 | 31.5 | 4.73 | H (H: Papp > 1*10-6) | 3.11 | 9.39 | > 100 | Sol 3 (solubility limit) ([2]; pH 7.4, replicate 3): > 200 µM; Sol 4 (solubility limit) ([2]; pH 7.4, replicate 4): 100 µM; Papp 3 (PAMPA) ([3]; pH 7.4, replicate 3): 4.69 ×10⁻⁶ cm/s; Papp 4 (PAMPA) ([3]; pH 7.4, replicate 4): 1.74 ×10⁻⁶ cm/s
CC(=NOCc1ccc(Br)cc1)c1c(C)cc(=O)n(O)c1O [Compound 1717] | 52.7 | 1.13 ± 0.186 | 100 | 100 | 100 | 50 | 50 | 50 | 138 | 50 | > 200 |  |  |  |  | 1.61 | H (H: Papp > 1*10-6) | 1.61 | 1.61 | 76.7 ± 30.3 | Solubility limit category [2, 8]: partially soluble (partially soluble (100–1 µM)); Sol 3 (solubility limit) ([2]; pH 6.5, replicate 3): 50 µM; Sol 3 (solubility limit) ([2]; pH 7.4, replicate 3): > 200 µM; Sol 4 (solubility limit) ([2]; pH 7.4, replicate 4): 100 µM
CC(=NOCc1ccccc1Br)c1c(C)cc(=O)n(O)c1O [Compound 1718] | 34.1 | 2 ± 1.63 | > 200 | > 200 | > 200 | 138 | 50 | 100 | 150 | 50 | > 200 | 43.6 | H (H: Papp > 1*10-6) | 37.3 | 50 | 3.22 | H (H: Papp > 1*10-6) | 3.31 | 3.07 | 80.8 ± 27.5 | Sol 3 (solubility limit) ([2]; pH 6.5, replicate 3): > 200 µM; Sol 4 (solubility limit) ([2]; pH 6.5, replicate 4): > 200 µM; Sol 3 (solubility limit) ([2]; pH 7.4, replicate 3): > 200 µM; Papp 3 (PAMPA) ([3]; pH 7.4, replicate 3): 3.29 ×10⁻⁶ cm/s
CC(=NOCc1ccc(OCc2ccccc2)cc1)c1c(C)cc(=O)n(O)c1O [Compound 1738] | 6.53 | 7.49 ± 1.73 | > 200 | > 200 | > 200 | > 200 | > 200 | > 200 | 167 | > 200 | 100 | 25.9 | H (H: Papp > 1*10-6) | 19.9 | 42.6 | 5.42 | H (H: Papp > 1*10-6) | 1.34 | 9.64 | 51.4 ± 19.2 | Sol 3 (solubility limit) ([2]; pH 7.4, replicate 3): > 200 µM; Papp 3 (PAMPA) ([3]; FeSSIF pH 5, replicate 3): 3.74 ×10⁻⁶ cm/s; Papp 4 (PAMPA) ([3]; FeSSIF pH 5, replicate 4): 37.3 ×10⁻⁶ cm/s; Papp 3 (PAMPA) ([3]; pH 7.4, replicate 3): 9.47 ×10⁻⁶ cm/s; Papp 4 (PAMPA) ([3]; pH 7.4, replicate 4): 1.23 ×10⁻⁶ cm/s; IC50 [6]: 0.56 µM
CC(=NOCc1ccc2ccccc2c1)c1c(C)cc(=O)n(O)c1O [Compound 1811] | 71.3 | 1.4 ± 1.19 | 50 | 50 | 50 | > 200 | > 200 | > 200 | 167 | 100 | > 200 |  |  |  |  | 3.57 | H (H: Papp > 1*10-6) | 1.71 | 3.97 | 64.3 ± 25.2 | Solubility limit category ([2]; pH 5.0 (fed simulated intestinal fluid)): partially soluble (partially soluble (100–1 µM)); Sol 3 (solubility limit) ([2]; pH 7.4, replicate 3): > 200 µM; Papp 3 (PAMPA) ([3]; pH 7.4, replicate 3): 4.02 ×10⁻⁶ cm/s; Papp 4 (PAMPA) ([3]; pH 7.4, replicate 4): 4.6 ×10⁻⁶ cm/s
CC(C)c1nc(CN(C)C(=O)N[C@H](C(=O)N[C@@H](Cc2ccccc2)C[C@H](O)[C@H](Cc2ccccc2)NC(=O)OCc2cncs2)C(C)C)cs1 [Ritonavir, ritonavir, reference compound] |  |  |  |  |  |  |  |  |  |  |  |  |  |  |  |  |  |  |  |  | half-life at 1 µM ([4]; both sexes, human liver microsomes, 1 µM compound, 30 min, NADPH): 23.3 min; microsomal CLint at 1 µM ([4]; both sexes, human liver microsomes, 1 µM compound, 30 min, NADPH, read-out: Clearance (intrinsic clearance, Clint)): 45.2 µL/min/mg
